According to patent US20220249484A1, “METHODS FOR PREDICTING RESPONSIVENESS OF CANCER TO FERROPTOSIS-INDUCING THERAPIES” (Memorial Sloan Kettering Cancer Center, priority 2019, published 2022):

Assays:
HCT116 cells [1] = test: Cell death inhibitors in sparse HCT116 cells under cystine starvation or RSL3; assay type: cell-based, human; conditions: 5×10^4 cells/well; for inhibition of RSL3-induced cell death: 5 μM RSL3 24 h, with cell death inhibitors; for inhibition of cystine starvation-induced cell death: cystine-free media 30 h, Fer-1 1 μM, DFO 50 μg/mL, Z-VAD-FMK 20 μM, GSK'872 10 μM
Procedure: (§1) Measurement of cell death, cell viability and lipid peroxidation. Cell death was analyzed by propidium iodide (Invitrogen, Waltham, Mass., USA) or SYTOX Green (Invitrogen) staining followed by microscopy or flow cytometry. For 3D spheroids, cell viability was determined using the CellTiter-Glo® 3D Cell Viability Assay (Promega, Madison, Wis., USA) according to the manufacturer's instructions. Viability was calculated by normalizing ATP levels to spheroids treated with normal full media. To analyze lipid peroxidation, cells were stained with 5 μM BODIPY-C11 (Invitrogen) for 30 minutes at 37° C. followed by flow cytometric analysis.
To confirm that sparse HCT116 cells were dying from ferroptosis but not another cell death modality, various cell death inhibitors were tested: ferrostatin-1 (Fer-1) and DFO, which inhibit ferroptosis, Z-VAD-FMK, a pan-caspase inhibitor, and GSK'872, a selective RIPK3 inhibitor that blocks necroptosis. HCT116 cells were seeded at a density of 5×10^4 cells/well and grown for 24 hours. Cells were washed in PBS and cultured in cystine-free media with the indicated treatments for 30 h. Fer-1: Ferrostatin-1, 1 μM; DFO: iron chelator, 50 μg/mL; Z-VAD-FMK: pan-caspase inhibitor, 20 μM; GSK'872: RIPK3 inhibitor, 10 μM. HCT116 cells were seeded at a density of 5×10^4 cells/well and grown for 24 hours, then treated with 5 μM RSL3 and the indicated cell death inhibitors for 24 hours before measuring cell death. These experiments confirmed that cells underwent ferroptosis, instead of other modes of cell death, under these conditions (FIGS. 6C-6D). Similar cell density-dependent ferroptosis was previously observed by Seiler et al., Cell Metab. 8: 237-248 (2008) and Schneider et al., Neoplasia 12:254-263 (2010). In Seiler et al., mouse embryonic fibroblasts (MEFs) harboring two floxed GPX4 alleles survived and grew when seeded at high density, but upon passage at lower density they died rapidly. In Schneider et al., GPX4-deficient MEFs formed 3D tumor spheroids as well as wild-type MEFs by an unknown mechanism.

HCT116 cells [2] = test: Ferroptosis in confluent HCT116 cells expressing shEcad, shMerlin or shLats1/2; assay type: cell-based, human; conditions: cystine starvation or RSL3 plus
Procedure: as §1
The involvement of the Hippo signaling in the regulation of ferroptosis by cell-cell contact was also assessed. Cells depleted of Ecad, Merlin, or Lats were generated using shRNA technology. HCT116 cells were infected by lentiviruses expressing shRNA sequences targeting Ecad (shEcad), Merlin (shMerlin), or Lats1/2 (shLats1/2), as indicated. Knockdown efficiency was confirmed by Western blot (FIG. 2B). […] Cell death was measured at 30 h using SYTOX Green staining followed by flow cytometry. Lipid ROS was measured at 24 hours using C11-BODIPY staining coupled with flow cytometry. […] Cell death was measured at 18 h and lipid ROS was measured at 14 h (FIG. 11A).

[3] = test system: tumor spheroids of HCT116 cells; test: Erastin-induced cell death in HCT116 tumor spheroids; assay type: cell-based, human; conditions: 15 μM erastin with 2 μM Fer-1, 30 h
Procedure: Generation of three-dimensional spheroids. Spheroids were generated by plating tumor cells at 10^3/well into U-bottom Ultra Low Adherence (ULA) 96-well plates (Corning, Tewksbury, Mass., USA). Optimal three-dimensional structures were achieved by centrifugation at 600 g for 5 min followed by addition of 2.5% Matrigel (Corning). Plates were incubated for 72 h at 37° C., 5% CO2, 95% humidity for formation of a single spheroid of cells. Spheroids were then treated with erastin in fresh medium containing Matrigel for the indicated time.
Measurement of cell death, cell viability and lipid peroxidation. Cell death was analyzed by propidium iodide (Invitrogen, Waltham, Mass., USA) or SYTOX Green (Invitrogen) staining followed by microscopy or flow cytometry. For 3D spheroids, cell viability was determined using the CellTiter-Glo® 3D Cell Viability Assay (Promega, Madison, Wis., USA) according to the manufacturer's instructions. Viability was calculated by normalizing ATP levels to spheroids treated with normal full media. […]
Tumor spheroids generated from shEcad, shMerlin and shLats1/2 cells were treated with 15 μM erastin with or without 2 μM Fer-1 for 30 h, and dead cells were stained green by SYTOX Green. Cell viability within the tumor spheroids was measured by determining ATP levels. […]

MSTO-211H cells = test: Ferroptosis in confluent MSTO-211H cells (shMerlin, shNcad); assay type: cell-based, human
Procedure: as §1
To confirm the ferroptosis-regulating role of Merlin in mesothelioma cells, the effect of Merlin knockdown on ferroptosis sensitivity was assessed. MSTO-211H cells were infected with lentiviruses expressing shMerlin. RNAi knockdown efficiency was confirmed by Western blot (FIG. 3F). Then, shNT or shMerlin MSTO-211H cells were cultured to high confluence, at which point they were treated with media containing or lacking cystine, with or without Fer-1 for 24 h. Cell death was measured by SYTOX Green staining followed by flow cytometry (FIG. 3G). To measure lipid reactive species, shNT or shMerlin MSTO-211H cells were treated for 18 h, at which point they were stained with 2 μM C11-BODIPY for lipid ROS measurement (FIG. 311). Confluent MSTO-211H cells expressing shNT or shMerlin were also treated with 1 μM RSL3 with or without […] Fer-1. Cell death (left, 24 h after treatment) and lipid ROS production (right, 16 h) were measured (FIG. 13B).
Therefore, the cell density dependence of ferroptosis is not limited to epithelial cells expressing Ecad. […] To assess the expression of N-cadherin in MSTO-211H mesothelioma cells, the cells were cultivated at different cell densities, and the levels of Ncad, p-YAP and total YAP were analyzed by Western blot. […] Therefore, the potential role of Ncad in ferroptosis was tested. MSTO-211H cells were infected with lentiviruses expressing Ncad shRNA (shNcad) and selected with puromycin.

MEFs = test: Ferroptosis and lipid ROS in MEFs; assay type: cell-based, mouse; conditions: Ferrostatin-1 2 μM; cystine starvation, erastin or RSL3
Procedure: as §1
Merlin-regulated ferroptosis in cell density dependent manner was also observed in MEFs, which are not of epithelial origin. Cell death of MEFs with different cell density induced by cystine starvation for 12 h was measured by PI staining (FIG. 15A), and flow cytometry (FIG. 15B). The effect of cystine starvation on lipid ROS production in MEFs cells with different cell density (6 h treatment) is also shown in FIG. 15B. […] As shown in FIGS. 15A-15D, increased cell density mitigated both cell death and lipid ROS generation induced by cystine starvation, erastin and RSL3 in MEFs.
MEFs also regulated the activity of YAP at high density in a Merlin-dependent manner. MEFs seeded at increasing density were probed for YAP localization by Immunofluorescence (FIG. 15E). The effect of Merlin was assessed by infecting MEFs with shMerlin lentivirus and selected with puromycin. […] As shown in FIGS. 15E-15F, with increasing cell confluence, there was an increase of YAP nuclear exclusion in MEFs, which was attenuated by Merlin knockdown.

HCT116 cells [4] = test: Ferroptosis in HCT116 cells expressing PAK-CAAX; assay type: cell-based, human
[5] = test system: HCT116-derived xenograft tumors; test: shLats1/2 HCT116 subcutaneous xenograft treated with IKE; assay type: in vivo, nude mice
Procedure: For shLats1/2 s.c. tumor models, female athymic nu/nu mice aged 6 to 8 weeks were injected in the right flank with 2×10^6 shNT HCT116 cells or shLats1/2 HCT116 cells. Tumors were measured with calipers every day. When tumors reached a mean volume of 90 mm^3, mice were randomized into four groups and treated with vehicle (65% D5W (5% dextrose in water), 5% Tween-80, 30% PEG-400) or 50 mg/kg IKE (65% D5W (5% dextrose in water), 5% Tween-80, 30% PEG-400) via IP injection once a day. At the end of the study, mice were euthanized with CO2 and tumors were taken for measurement of weight.
To determine whether Lats1/2, the kinases that directly phosphorylate and inactivate YAP, can have similar effects in vivo as Merlin, subcutaneous xenograft tumors were formed from HCT116 cells harboring hairpins targeting Lats1/2. In particular, HCT116 cells containing non-targeting hairpins or hairpins targeting both Lats1 and 2 were injected subcutaneously into nude mice (n=6 per group). Tumors were grown to a volume of 90 mm^3, at which point they were injected […] with 50 mg/kg imidazole ketone erastin (IKE) once a day for 12 days. Tumor volume was measured daily by caliper. Images of resected tumors and their masses were also quantified (FIGS. 19B-19C). Imidazole ketone erastin (IKE) is an erastin analog that is amenable for in vivo use because of the increased solubility and stability.

211H mesothelioma cells = test: Sorafenib-induced ferroptosis; assay type: cell-based, human; conditions: 10 μM sorafenib
Procedure: (§2) The effect of sorafenib on cell density-dependent ferroptosis was determined. First, HCT116 cells were seeded at a density of 0.5×10^5 cells/3.5 cm2 well (sparse) or 4×10^5 cells/3.5 cm2 well (confluent) and grown for 24 h. Cells were then treated with DMSO, 10 μM sorafenib, or 10 μM sorafenib and 2 μM Fer-1 as indicated. […] Second, ΔEcad or the parental HCT116 cells were seeded at 4×10^5 cells/3.5 cm2 well and grown for 24 h. Cells were then treated with 10 μM sorafenib and 2 μM Fer-1 as indicated. Third, HCT116 shNT or shMerlin cells, MSTO-211H shNT or shMerlin cells, HCT116 cells expressing YAP^S127A or the parental cells, MSTO-211H cells expressing YAP^S127A or the parental cells, and HCT116 shNT or shLats1/2 cells were seeded at high density and treated with 10 μM sorafenib and 2 μM Fer-1 as indicated.

HCT116 cells [6] = test: Sorafenib-induced ferroptosis; assay type: cell-based, human; conditions: 10 μM sorafenib
Procedure: as §2

malignant mesothelioma = conditions: clinical trials; cited from earlier work
211H cells = test: Verteporfin and cystine starvation-induced ferroptosis; assay type: cell-based, human; conditions: verteporfin 0.5 μM
Procedure: (§3) To further confirm this conclusion, a pharmacological analysis was performed. As a transcriptional coactivator, YAP regulates the expression of multiple target genes through its interaction with the TEAD family of transcriptional factors. Verteporfin (VP), a pharmacological agent that can inhibit the interaction of YAP with the TEAD family members was used to determine the effect of Merlin on ferroptosis. […] YAP^S127A-expressing cells were also treated with verteporfin (0.5 μM) after 24 h of cystine starvation in shMerlin HCT116 or 211H cells.

HCT116 cells [7] = test: as above; assay type: cell-based, human; conditions: verteporfin 0.5 μM
Procedure: as §3

CC(=O)N(O)CCCCCNC(=O)CCC(=O)N(O)CCCCCNC(=O)CCC(=O)N(O)CCCCCN [DFO]
inhibition of RSL3-induced cell death (HCT116 cells [1]): inhibited
inhibition of cystine starvation-induced cell death (HCT116 cells [1]): inhibited

CCOC(=O)c1ccc(NC2CCCCC2)c(N)c1 [Fer-1, Ferrostatin-1]
inhibition of RSL3-induced cell death (HCT116 cells [1]): inhibited
inhibition of cystine starvation-induced cell death (HCT116 cells [1]): inhibited
block of cell death by Fer-1, confluent knockdown cells (HCT116 cells [2]): blocked cell death
block of erastin-induced cell death in spheroids by Fer-1 [3]: blocked cell death
block of RSL3-induced ferroptosis and lipid ROS in shMerlin cells by Fer-1 (MSTO-211H cells; 1 μM RSL3 with 204 Fer-1): blocked
block of lipid ROS production in cystine-deprived shMerlin cells by Fer-1 (MSTO-211H cells; high confluence, 18 h): blocked
block of cystine deprivation-induced ferroptosis in shMerlin cells by Fer-1 (MSTO-211H cells; high confluence, cystine-free 24 h): blocked
block of cell death and lipid ROS in confluent Merlin RNAi MEFs (MEFs): blocked
inhibition of RSL3-induced ferroptosis in PAK-CAAX cells by Fer-1 (HCT116 cells [4]): inhibited
inhibition of cystine deprivation-induced ferroptosis in PAK-CAAX cells by Fer-1 (HCT116 cells [4]): inhibited

CC(C)Oc1ccc(C(=O)Cn2ccnc2)cc1-n1c(CN2CCN(C(=O)COc3ccc(Cl)cc3)CC2)nc2ccccc2c1=O [IKE, imidazole ketone erastin]
mass of resected xenograft tumors ([5]; Lats1/2 depleted HCT116 tumors, 50 mg/kg IKE once a day): reduced
xenograft tumor growth (volume) ([5]; shLats1/2 HCT116 tumors, 50 mg/kg IKE once a day for 12 days): grew slowly or receded

CNC(=O)c1cc(Oc2ccc(NC(=O)Nc3ccc(Cl)c(C(F)(F)F)c3)cc2)ccn1 [sorafenib]
sorafenib-induced ferroptosis at high cell density after inhibition of Merlin or activation of YAP (211H mesothelioma cells): sensitize these cells to sorafenib-induced ferroptosis at high cell density
sorafenib-induced ferroptosis at high cell density after loss of Ecad, Lats1/2, inhibition of Merlin or activation of YAP (HCT116 cells [6]): sensitize these cells to sorafenib-induced ferroptosis at high cell density
sorafenib-induced ferroptosis, sparse versus confluent cells (HCT116 cells [6]): could induce cell density-dependent ferroptosis
clinical outcome in malignant mesothelioma (malignant mesothelioma): can stabilize, but not necessarily treat mesothelioma

Verteporfin
effect of Merlin knockdown and YAP^S127A overexpression on cystine starvation-induced ferroptosis (211H cells; high density): ablated the effect of Merlin knockdown and YAP^S127A overexpression
sensitivity of shMerlin cells to cystine starvation-induced ferroptosis (211H cells; 24 h cystine starvation): reduced cells sensitivity to ferroptosis
effect of Merlin knockdown and YAP^S127A overexpression on cystine starvation-induced ferroptosis (HCT116 cells [7]; high density): ablated the effect of Merlin knockdown and YAP^S127A overexpression
sensitivity of shMerlin cells to cystine starvation-induced ferroptosis (HCT116 cells [7]; 24 h cystine starvation): reduced cells sensitivity to ferroptosis
